Measured values as given in patent publication EP0923292B1, “IMPROVED METHOD FOR SYSTEMIC ADMINISTRATION OF 2,4-DIENOIC ACID-TYPE INSECTICIDES TO TERRESTRIAL MAMMALS” (priority 1996, dated 1998).

Assays:
[1] = Concentration of (S)-methoprene on dog hair following oral administration (HPLC); assay type: in vivo, dogs; conditions: oral 50 mg/kg one time on Day 0; for concentration at 17 day / concentration at 21 day / concentration at 1 day / concentration at 3 day / concentration at 5 day / concentration at 7 day / concentration at 10 day / concentration at 14 day / concentration at 28 day: dog, hair, po, 50 mg/kg; for concentration at 1 day: day 1
From the text: Twelve random-bred adult dogs of various sex and medium hair coat were selected based on hair coat, health, and individual habits. The twelve dogs were grouped into two groups of six dogs each. Dog weights ranged from 22.5 kg to 35.0 kg, and the various weights and each sex were represented in each group. The dogs received a measured amount of Science Diet maintenance dog food daily and water was available. The two groups of dogs were housed separately. The dogs of Group 1 were not given any treatments, whereas those of Group 2 were each given 50 mg/kg of technical (S)-methoprene one time only at the start of the study (Day 0).
Blood samples were taken periodically by drawing the samples into 10 cc disposable syringes and transferring them to labeled 5 mL heparinized EDTA vacutainers treated with […] of paraoxon solution at a concentration of 1 x 10^-2 M. The blood samples were frozen until ready for analysis. Hair samples were clipped from the dogs on the same days that blood samples were taken, then placed in labeled freezer jars with aluminum foil seals, and frozen.
To analyze the dog hair, a known weight (4-8 g) of each dog hair sample was extracted in hexane, the extract evaporated and the residue reconstituted in 2 mL of hexane. One mL of the extract was cleaned by solid-phase extraction using a 3 cc/500 mg silica cartridge. The (S)-methoprene was then eluted from the cartridge with 5% ethyl acetate/hexane. The residue was reconstituted in 1 mL acetonitrile and analyzed by reversed-phase high-pressure liquid chromatography (HPLC) on a C18 column (250 x 4.6 mm, 10-micron diameter) using diode array detection at a wavelength of 264 nm, with a mobile phase of 90:10 methanol:water at 1.5 mUmin and an injection volume of […]. The (S)-methoprene peak eluted at about 5.1 minutes. The concentration of (S)-methoprene was calculated based on a calibration curve generated by concurrently running a series of standards. The limit of quantitation was about 20 ppb.

adult cat fleas C. felis = assay: Flea ovicidal activity in vitro: artificial feeding system with blood drawn from treated dogs (Example 3); conditions: fed to fleas
From the text: For the in vitro tests, an artificial feeding system with cages for adult cat fleas C. felis was used as described by Wade, S.E., et al., J. Med. Ent. 25(3): 186-190 (May 1988). Inside each cage were placed 100 one-week-old, unfed adult C. fells. Each cage included a container for treated blood separated from the fleas by a PARAFILM® membrane, and a compartment containing thin strips of paper to support loosely arranged clean dog hair and to provide a foothold for the fleas as they fed on the blood through the membrane.
Fifteen healthy male beagle dogs, one year of age, with weights ranging from 10.29 kg to 13.87 kg, were divided into three groups of five dogs each. One group was fed an initial bolus of 50 mg/kg of (S)-methoprene, followed by daily feeding a standard maintenance diet containing 0.02% (S)-methoprene. The second group was fed an initial bolus of 25 mg/kg of (S)-methoprene, followed by daily feeding a standard maintenance diet containing 0.01% (S)-methoprene. The third group received the same diet but with no (S)-methoprene, thereby serving as a control. The daily feeding of 0.02% (S)-methoprene in the first group amounted to approximately 3.6 mg/kg, while the daily feeding of 0.01% (S)-methoprene in the second group amounted to approximately 1.8 mg/kg. The (S)-methoprene was administered in a gelatin capsule, the control involved administration of a gelatin capsule containing vegetable oil instead of (S)-methoprene, and the standard diet was a Science Diet Canine Maintenance. The daily feeding of the (S)-methoprene continued for six weeks following the initial bolus.
Seven days after the initial bolus and weekly thereafter for five more weeks except week 4, 50 mL of blood was collected from each dog into a syringe preloaded with 3 mL of a 20% (by weight) aqueous sodium citrate solution. The five 50-mL samples from each treatment group were pooled at each bleeding. Aliquots of 10 mL each from each pool were placed in separate feeding chambers of the artificial flea feeding cages.
Flea eggs were collected from each cage at appropriate intervals. One hundred (100) healthy appearing […] were counted under a dissecting microscope from each cage, divided into two subsamples, and placed in 60 mm x 15 mm plastic petri dishes. The samples were incubated at 78°F and 85% relative humidity for three days, then scored for larval hatch by visual observation through the dissecting microscope. The data from all replicates in each treatment group were combined to yield the mean percent egg hatch, and the percent inhibition of egg hatch was calculated relative to the control.

For `COC(C)(C)CCC[C@H](C)C/C=C/C(C)=C/C(=O)OC(C)C` [(S)-Methoprene, 1-isopropyl (E,E)-11-methoxy-3,7,11-trimethyl dodecadi-2,4-enoate], the “Concentration of (S)-Methoprene on Dog Hair” value (“Concentration … on Dog Hair” for short) ([1]; Dog #60, day 3) was 33,900 ppb, the “Concentration … on Dog Hair” value ([1]; Dog #60, day 5) was 12,500 ppb and the “Concentration … on Dog Hair” value ([1]; Dog #60, day 7) was 2,400 ppb. The “Concentration … on Dog Hair” value ([1]; Dog #60, day 10) was 12,300 ppb, the “Concentration … on Dog Hair” value ([1]; Dog #60, day 14) was 5,300 ppb and the “Concentration … on Dog Hair” value ([1]; Dog #60, day 17) was 3,600 ppb. For the same molecule, the “Concentration … on Dog Hair” value ([1]; Dog #60, day 21) was 12,100 ppb, the “Concentration … on Dog Hair” value ([1]; Dog #60, day 28) was 5,200 ppb and the concentration at 17 day ([1]; Dog #98, day 17) was 345 ng/g. For the same molecule, the concentration at 17 day ([1]; Dog #528, day 17) was 137 ng/g, the concentration at 21 day ([1]; Dog #528, day 21) was 31.2 ng/g and the concentration at 17 day ([1]; Dog #529, day 17) was 39.7 ng/g. The concentration at 21 day ([1]; Dog #529, day 21) was 93.5 ng/g, the concentration at 17 day ([1]; Dog #532, day 17) was 331 ng/g and the concentration at 17 day ([1]; Dog #535, day 17) was 1090 ng/g. It also gave a concentration at 1 day ([1]; random-bred, Dog #60) of 6000 ng/g, a concentration at 1 day ([1]; random-bred, Dog #98) of 47.4 ng/g and a concentration at 3 day ([1]; random-bred, Dog #98, day 3) of 125 ng/g. It also gave a concentration at 5 day ([1]; random-bred, Dog #98, day 5) of 161 ng/g, a concentration at 7 day ([1]; random-bred, Dog #98, day 7) of 126 ng/g and a concentration at 10 day ([1]; random-bred, Dog #98, day 10) of 167 ng/g. It also gave a concentration at 14 day ([1]; random-bred, Dog #98, day 14) of 200 ng/g, a concentration at 21 day ([1]; random-bred, Dog #98, day 21) of 231 ng/g and a concentration at 28 day ([1]; random-bred, Dog #98, day 28) of 287 ng/g. It also gave a concentration at 1 day ([1]; random-bred, Dog #528) of 76.6 ng/g, a concentration at 3 day ([1]; random-bred, Dog #528, day 3) of 199 ng/g and a concentration at 5 day ([1]; random-bred, Dog #528, day 5) of 114 ng/g. It also gave a concentration at 7 day ([1]; random-bred, Dog #528, day 7) of 150 ng/g, a concentration at 10 day ([1]; random-bred, Dog #528, day 10) of 126 ng/g and a concentration at 14 day ([1]; random-bred, Dog #528, day 14) of 103 ng/g. The concentration at 28 day ([1]; random-bred, Dog #528, day 28) was 47.2 ng/g, the concentration at 1 day ([1]; random-bred, Dog #529) was 86.6 ng/g and the concentration at 3 day ([1]; random-bred, Dog #529, day 3) was 82.2 ng/g. The concentration at 5 day ([1]; random-bred, Dog #529, day 5) was 58.3 ng/g, the concentration at 7 day ([1]; random-bred, Dog #529, day 7) was 34.5 ng/g and the concentration at 10 day ([1]; random-bred, Dog #529, day 10) was 60.5 ng/g. For the same molecule, the concentration at 14 day ([1]; random-bred, Dog #529, day 14) was 85.5 ng/g, the concentration at 28 day ([1]; random-bred, Dog #529, day 28) was 106 ng/g and the concentration at 3 day ([1]; random-bred, Dog #532, day 3) was 62.4 ng/g. The concentration at 5 day ([1]; random-bred, Dog #532, day 5) was 98.6 ng/g, the concentration at 7 day ([1]; random-bred, Dog #532, day 7) was 117 ng/g and the concentration at 10 day ([1]; random-bred, Dog #532, day 10) was 255 ng/g. For the same molecule, the concentration at 14 day ([1]; random-bred, Dog #532, day 14) was 350 ng/g, the concentration at 21 day ([1]; random-bred, Dog #532, day 21) was 342 ng/g and the concentration at 28 day ([1]; random-bred, Dog #532, day 28) was 230 ng/g. For the same molecule, the concentration at 1 day ([1]; random-bred, Dog #535) was 49.3 ng/g, the concentration at 3 day ([1]; random-bred, Dog #535, day 3) was 424 ng/g and the concentration at 5 day ([1]; random-bred, Dog #535, day 5) was 276 ng/g. It also gave a concentration at 7 day ([1]; random-bred, Dog #535, day 7) of 294 ng/g, a concentration at 10 day ([1]; random-bred, Dog #535, day 10) of 681 ng/g and a concentration at 14 day ([1]; random-bred, Dog #535, day 14) of 800 ng/g. For the same molecule, the concentration at 21 day ([1]; random-bred, Dog #535, day 21) was 675 ng/g, the concentration at 28 day ([1]; random-bred, Dog #535, day 28) was 461 ng/g and the “Percent Inhibition of Flea Egg Hatching” value (adult cat fleas C. felis; pooled blood of dogs given initial bolus 25 mg/kg then daily diet 0.01% (S)-methoprene, week 1) was 6%. For the same molecule, the “Percent Inhibition of Flea Egg Hatching” value (adult cat fleas C. felis; pooled blood of dogs given initial bolus 25 mg/kg then daily diet 0.01% (S)-methoprene, week 3) was 38%, the “Percent Inhibition of Flea Egg Hatching” value (adult cat fleas C. felis; pooled blood of dogs given initial bolus 25 mg/kg then daily diet 0.01% (S)-methoprene, week 5) was 24% and the “Percent Inhibition of Flea Egg Hatching” value (adult cat fleas C. felis; pooled blood of dogs given initial bolus 25 mg/kg then daily diet 0.01% (S)-methoprene, week 6) was 19%. For the same molecule, the “Percent Inhibition of Flea Egg Hatching” value (adult cat fleas C. felis; pooled blood of dogs given initial bolus 50 mg/kg then daily diet 0.02% (S)-methoprene, week 1) was 33%, the “Percent Inhibition of Flea Egg Hatching” value (adult cat fleas C. felis; pooled blood of dogs given initial bolus 50 mg/kg then daily diet 0.02% (S)-methoprene, week 3) was 48% and the “Percent Inhibition of Flea Egg Hatching” value (adult cat fleas C. felis; pooled blood of dogs given initial bolus 50 mg/kg then daily diet 0.02% (S)-methoprene, week 5) was 38%. For the same molecule, the “Percent Inhibition of Flea Egg Hatching” value (adult cat fleas C. felis; pooled blood of dogs given initial bolus 50 mg/kg then daily diet 0.02% (S)-methoprene, week 6) was 22%.
